One experiment concerns MCF-7 cells. Kind of experiment: CellTiter-Glo (CTG) cell proliferation assay in MCF-7 cells. The note with it: Homo sapiens, MCF7, 144 h, MCF-7 cell proliferation, Day 6. It is filed as cell-based. The text has this: CellTiter-Glo® (CTG) Assays in MCF-7 and T47D Cell Lines.
In vitro Assay: MCF-7 and T47D CTG assay
In general terms: ATP-based viability assays read luminescence as a measure of living cells.

A further experiment has as its target ER in MCF-7 cells (Homo sapiens (Human), UniProt P03372). Kind of experiment: In-cell Western (ICW) ER degradation assay in MCF-7 cells. The conditions noted are these: for DC50: MCF-7, ER degradation, read-out: MCF7 DC50. It is filed as cell-based.
[1] abbreviates: MCF7, MCF-7, maximal ER degradation, 16 hrs treatment, read-out: MCF7 Dmax.
[2] abbreviates: MCF7, read-out: MCF7 Dmax, MCF-7, maximal ER degradation, 16 hrs treatment.

This note sets out measurements from patent US20260028354A1, “TETRAHYDRONAPHTHALENE DERIVATIVES AS ESTROGEN RECEPTOR DEGRADERS” (REGENT OF THE UNIVERSITY OF MICHIGAN, priority 2022, published 2026).

Read-outs that look alike come from different tables or passages of the source.

Chain of ER in MCF-7 cells (P03372 whole entry): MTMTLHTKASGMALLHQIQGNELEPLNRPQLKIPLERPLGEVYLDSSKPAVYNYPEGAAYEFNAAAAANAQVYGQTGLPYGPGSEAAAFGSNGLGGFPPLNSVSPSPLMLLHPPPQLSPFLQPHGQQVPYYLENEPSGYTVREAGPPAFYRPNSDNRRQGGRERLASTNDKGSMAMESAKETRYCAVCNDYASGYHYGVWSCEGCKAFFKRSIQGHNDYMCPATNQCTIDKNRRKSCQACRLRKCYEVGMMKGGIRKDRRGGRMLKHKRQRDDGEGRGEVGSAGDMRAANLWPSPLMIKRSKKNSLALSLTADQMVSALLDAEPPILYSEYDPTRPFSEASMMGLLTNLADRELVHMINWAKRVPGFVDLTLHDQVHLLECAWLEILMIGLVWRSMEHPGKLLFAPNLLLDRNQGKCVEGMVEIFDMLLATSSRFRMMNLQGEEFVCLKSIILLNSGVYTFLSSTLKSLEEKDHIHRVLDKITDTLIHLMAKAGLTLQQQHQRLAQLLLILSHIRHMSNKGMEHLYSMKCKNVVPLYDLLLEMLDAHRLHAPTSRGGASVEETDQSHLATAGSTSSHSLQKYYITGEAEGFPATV

In the experiment on MCF-7 cells, `COC1(CCN2CCN3c4ccc5c(c4OC[C@H]3C2)CN([C@H]2CCC(=O)NC2=O)C5=O)CCN(c2ccc([C@@H]3c4ccc(O)cc4CC[C@@H]3c3ccccc3)cc2)CC1` [Compound A192, (S)-3-((R)-7-(2-(1-(4-((1R,2S)-6-hydroxy-2-phenyl-1,2,3,4-tetrahydronaphthalen-1-yl)-phenyl)-4-methoxypiperidin-4-yl)cthyl)-1-oxo-1,3,5,5a,6,7,8,9-octahydro-2H-pyrazino[1′,2′: 4,5][1,4]oxazino[2,3-e]isoindol-2-yl)piperidine-2,6-dione] gave an IC50 greater than 100 nM. The Dmax at ER in MCF-7 cells (setting [1]) is greater than 75%. Besides, the DC50 at ER in MCF-7 cells (16 hrs treatment) was less than 1 nM.
`O=C1CC[C@H](N2Cc3c4c(cc(Cl)c3C2=O)C2(CCN(C[C@H]3CCC5(CCN(c6ccc([C@@H]7c8ccc(O)cc8CC[C@@H]7c7ccccc7)cc6)CC5)OC3)CC2)CO4)C(=O)N1` [Compound A231, (S)-3-(5-chloro-1′-(((R)-9-(4-((1R,2S)-6-hydroxy-2-phenyl-1,2,3,4-tetrahydronaphthalen-1-yl)phenyl)-1-oxa-9-azaspiro[5.5]undecan-3-yl)methyl)-6-oxo-6,8-dihydro-2H,7H-spiro[furo[2,3-e]isoindole-3,4′-pipcridin]-7-yl)piperidine-2,6-dione] came in with an IC50 in the experiment on MCF-7 cells of less than 10 nM. The Dmax at ER in MCF-7 cells (setting [2]) is greater than 75%. Further, at ER in MCF-7 cells (16 hrs treatment), the DC50 is less than 1 nM.
In the experiment with MCF-7 cells, `COc1cc(N2CCC(CCN3CCN4c5cc(C)c6c(c5OC[C@H]4C3)CN([C@H]3CCC(=O)NC3=O)C6=O)CC2)c(F)cc1[C@@H]1c2ccc(O)cc2CC[C@@H]1c1ccccc1` [Compound A229, (S)-3-((R)-7-(2-(1-(2-fluoro-4-((1S,2S)-6-hydroxy-2-phenyl-1,2,3,4-tetrahydronaphthalen-1-yl)-5-methoxyphenyl)piper-idin-4-yl)ethyl)-12-methyl-1-oxo-1,3,5,5a,6,7,8,9-octahydro-2H-pyrazino[1′,2′:4,5][1,4]oxazino[2,3-e]isoindol-2-yl)-piperidine-2,6-dione] registered an IC50 of 10 to 100 nM. Also, the Dmax on ER in MCF-7 cells (setting [1]) was greater than 75%. Also, at ER in MCF-7 cells (16 hrs treatment), the DC50 is less than 1 nM.
Compound `O=C1CC[C@H](N2Cc3c(ccc4c3OCC43CCN(CC4CCC5(CC4)CN(c4ccc([C@@H]6c7ccc(O)cc7CC[C@@H]6c6ccccc6)cc4)C5)CC3)C2=O)C(=O)N1` [Compound A177, (S)-3-(1′-((2-(4-((1R,2S)-6-hydroxy-2-phenyl-1,2,3,4-tetra-hydronaphthalen-1-yl)phenyl)-2-azaspiro[3.5]nonan-7-yl)-methyl)-6-oxo-6,8-dihydro-2H,7H-spiro[furo[2,3-e]iso-indole-3,4′-piperidin]-7-yl)-piperidine-2,6-dione] registered an IC50 with MCF-7 cells greater than 100 nM. Further, the maximal degradation (Dmax) on ER in MCF-7 cells (setting [2]) is greater than 75%. For the same compound, the DC50 on ER in MCF-7 cells (16 hrs treatment) was less than 1 nM.
For `COc1cc(N2CCC3(CC2)CC(CN2CCC4(CC2)COc2c4cc4c(c2Cl)C(=O)N([C@H]2CCC(=O)NC2=O)C4)C3)c(F)cc1[C@@H]1c2ccc(O)cc2CC[C@@H]1c1ccccc1` [Compound A218, (S)-3-(8-chloro-1′-((7-(2-fluoro-4-((1S,2S)-6-hydroxy-2-phenyl-1,2,3,4-tetrahydro-naphthalen-1-yl)-5-methoxy-phenyl)-7-azaspiro[3.5]nonan-2-yl)methyl)-7-oxo-5,7-dihydro-2H,6H-spiro[furo[2,3-f]isoindole-3,4′-piperidin]-6-yl)piperidine-2,6-dione] the same measures were less than 10 nM, greater than 75% and less than 1 nM.
Take `O=C1CC[C@H](N2Cc3c(ccc4c3OC[C@H]3CN(CC5CC6(CCN(c7cnc(C8c9ccc(O)cc9CCC8c8ccccc8)cn7)CC6)C5)CCN43)C2=O)C(=O)N1` (stereo partly drawn) [Compound A195, (3S)-3-((5aR)-7-((7-(5-(6-hydroxy-2-phenyl-1,2,3,4-tetra-hydronaphthalen-1-yl)pyrazin-2-yl)-7-azaspiro[3.5]nonan-2-yl)methyl)-1-oxo-1,3,5,5a,6,7,8,9-octahydro-2H-pyrazino [1′,2′:4,5][1,4]oxazino[2,3-e]isoindol-2-yl)piperidine-2,6-dione]: in the experiment on MCF-7 cells, the IC50 was greater than 100 nM. For the same compound, on ER in MCF-7 cells (setting [1]), the maximal degradation (Dmax) was greater than 75%. At ER in MCF-7 cells (16 hrs treatment), the DC50 is less than 1 nM.
On to `COc1cc(N2CCC3(CC2)CC(CN2CCC4(CC2)COc2c4cc(OC)c4c2CN([C@H]2CCC(=O)NC2=O)C4=O)C3)c(F)cc1[C@@H]1c2ccc(O)cc2CC[C@@H]1c1ccccc1` [Compound A222, (S)-3-(1′-((7-(2-fluoro-4-((1S,2S)-6-hydroxy-2-phenyl-1,2,3,4-tetrahydronaphthalen-1-yl)-5-methoxyphenyl)-7-azaspiro[3.5]nonan-2-yl)methyl)-5-methoxy-6-oxo-6,8-dihydro-2H,7H-spiro[furo[2,3-e]isoindole-3,4′-piperidin]-7-yl)piperidine-2,6-dione], for which, in the experiment with MCF-7 cells, the IC50 is less than 10 nM. For the same compound, the Dmax on ER in MCF-7 cells (setting [2]) is greater than 75%. Also, at ER in MCF-7 cells (16 hrs treatment), the DC50 was less than 1 nM.
The matching figures for `COc1c([C@@H]2c3ccc(O)cc3CC[C@@H]2c2ccccc2)ccc(N2CCC3(CC2)CC(CN2CCC4(CC2)COc2c4ccc4c2CN([C@H]2CCC(=O)NC2=O)C4=O)C3)c1F` [Compound A198, (S)-3-(1′-((7-(2-fluoro-4-((1S, 2S)-6-hydroxy-2-phenyl-1,2,3,4-tetrahydronaphthalen-1-yl)-3-methoxyphenyl)-7-aza-spiro[3.5]nonan-2-yl)methyl)-6-oxo-6,8-dihydro-2H,7H-spiro[furo[2,3-e]isoindole-3,4′-piperidin]-7-yl)piperidine-2,6-dione]: 10 to 100 nM, 50 to 75% and less than 1 nM.
Turning to `COc1cc2c(c3c1C(=O)N([C@H]1CCC(=O)NC1=O)C3)OCC21CCN(C[C@H]2CCC3(CCN(c4ccc([C@@H]5c6ccc(O)cc6CC[C@@H]5c5ccccc5)cc4)CC3)OC2)CC1` [Compound A235, (S)-3-(1′-(((R)-9-(4-((1R,2S)-6-hydroxy-2-phenyl-1,2,3,4-tetrahydronaphthalen-1-yl)phenyl)-1-oxa-9-azaspiro[5.5]undecan-3-yl)methyl)-5-methoxy-6-oxo-6,8-dihydro-2H,7H-spiro[furo[2,3-e]isoindole-3,4′-piperidin]-7-yl)piperidine-2,6-dione], the IC50 with MCF-7 cells was less than 10 nM. In addition, the Dmax at ER in MCF-7 cells (setting [2]) is greater than 75%. In addition, on ER in MCF-7 cells (16 hrs treatment), the DC50 is less than 1 nM.
The matching figures for `COc1c([C@@H]2c3ccc(O)cc3CC[C@@H]2c2ccccc2)ccc(N2CCC(CN3CCC4(CC3)COc3cc5c(cc34)CN([C@H]3CCC(=O)NC3=O)C5=O)CC2)c1F` [Compound A191, (S)-3-(1′-((1-(2-fluoro-4-((1S, 2S)-6-hydroxy-2-phenyl-1,2,3,4-tetrahydronaphthalen-1-yl)-3-methoxyphenyl)piper-idin-4-yl)methyl)-7-oxo-5,7-dihydro-2H,6H-spiro[furo[2,3-f]isoindole-3,4′-piperidin]-6-yl)piperidine-2,6-dione]: 10 to 100 nM, 50 to 75% and less than 1 nM.
`COc1c([C@@H]2c3ccc(O)cc3CC[C@@H]2c2ccccc2)ccc(N2CCC3(CC2)CC(CN2CCN4c5ccc6c(c5OC[C@H]4C2)CN([C@H]2CCC(=O)NC2=O)C6=O)C3)c1F` [Compound A196, (S)-3-((R)-7-((7-(2-fluoro-4-((1S,2S)-6-hydroxy-2-phenyl-1,2,3,4-tetrahydronaphthalen-1-yl)-3-methoxyphenyl)-7-aza-spiro[3.5]nonan-2-yl)methyl)-1-oxo-1,3,5,5a,6,7,8,9-octa-hydro-2H-pyrazino[1′,2′:4,5] [1,4]oxazino[2,3-e]isoindol-2-yl)piperidine-2,6-dione] had an IC50 in the experiment on MCF-7 cells of less than 10 nM. Moreover, on ER in MCF-7 cells (setting [1]), the Dmax was greater than 75%. Further, the half-maximal degradation concentration (DC50) on ER in MCF-7 cells (16 hrs treatment) was less than 1 nM.
`COc1cc(N2CCC(CCN3CCC4(CC3)COc3c4cc(OC)c4c3CN([C@@H]3CCC(=O)NC3=O)C4=O)CC2)c(F)cc1[C@@H]1c2ccc(O)cc2CC[C@@H]1c1ccccc1` [Compound A225, (R)-3-(1′-(2-(1-(2-fluoro-4-((1S,2S)-6-hydroxy-2-phenyl-1,2,3,4-tetrahydronaphthalen-1-yl)-5-methoxyphenyl)piperidin-4-yl)ethyl)-5-methoxy-6-oxo-6,8-dihydro-2H,7H-spiro[furo[2,3-e]isoindole-3,4′-piperidin]-7-yl)piperidine-2,6-dione] returned an IC50 in the experiment with MCF-7 cells of less than 10 nM.
In the experiment with MCF-7 cells, `COc1cc(N2CCC3(CC2)CC(CN2CCN4c5cc(Cl)c6c(c5OC[C@H]4C2)CN([C@H]2CCC(=O)NC2=O)C6=O)C3)c(F)cc1[C@@H]1c2ccc(O)cc2CC[C@@H]1c1ccccc1` [Compound A221, (S)-3-((R)-12-chloro-7-((7-(2-fluoro-4-((1S,2S)-6-hydroxy-2-phenyl-1,2,3,4-tetrahydronaph-thalen-1-yl)-5-methoxyphenyl)-7-azaspiro[3.5]nonan-2-yl)-methyl)-1-oxo-1,3,5,5a,6,7,8,9-octahydro-2H-pyrazino[1′,2′: 4,5][1,4]oxazino[2,3-e]isoindol-2-yl)piperidine-2,6-dione] displayed an IC50 greater than 100 nM.
In turn, `COc1cc(N2CCC3(CC2)CC(CN2CCC4(CC2)COc2c4cc4c(c2C)C(=O)N([C@@H]2CCC(=O)NC2=O)C4)C3)c(F)cc1[C@@H]1c2ccc(O)cc2CC[C@@H]1c1ccccc1` [Compound A219, (R)-3-(1′-((7-(2-fluoro-4-((1S, 2S)-6-hydroxy-2-phenyl-1,2,3,4-tetrahydronaphthalen-1-yl)-5-methoxyphenyl)-7-aza-spiro[3.5]nonan-2-yl)methyl)-8-methyl-7-oxo-5,7-dihydro-2H,6H-spiro[furo[2,3-f]iso-indole-3,4′-piperidin]-6-yl)-piperidine-2,6-dione] displayed an IC50 with MCF-7 cells of less than 10 nM.

A word on the IC50: it is the concentration needed to halve the response being measured. Read a high IC50 as a need for much substance. Broadly, the Dmax is the largest share of the target that was removed. For orientation: DC50 means the concentration at which degradation of the target reaches its halfway point.
